Data: patent publication US10927078B2, “Modulators of indoleamine 2,3-dioxygenase” (GLAXOSMITHKLINE INTELLECTUAL PROPERTY DEVELOPMENT LIMITED, priority 2017, dated 2021)

Molecular target: indoleamine 2, 3-dioxygenase (IDO1) (Homo sapiens, UniProt P14902)
Experiment: PBMC IDO1 assay (kynurenine via mass spectrometry)
Type: cell-based
Settings: not given
Method: Compounds of the present invention were tested via high-throughput cellular assays utilizing detection of kynurenine via mass spectrometry and cytotoxicity as end-points. For the mass spectrometry and cytotoxicity assays, human peripheral blood mononuclear cells (PBMC) (PB003F; AllCells®, Alameda, Calif.) were stimulated with human interferon-γ (IFN-γ) (Sigma-Aldrich Corporation, St. Louis, Mo.) and lipopolysaccharide from Salmonella minnesota (LPS) (Invivogen, San Diego, Calif.) to induce the expression of indoleamine 2, 3-dioxygenase (IDO1). Compounds with IDO1 inhibitory properties decreased the amount of kynurenine produced by the cells via the tryptophan catabolic pathway. Cellular toxicity due to the effect of compound treatment was measured using CellTiter-Glo® reagent (CTG) (Promega Corporation, Madison, Wis.), which is based on luminescent detection of ATP, an indicator of metabolically active cells.
In preparation for the assays, test compounds were serially diluted 3-fold in DMSO from a typical top concentration of 5 mM and plated at 0.5 μL in 384-well, polystyrene, clear bottom, tissue culture treated plates with lids (Greiner Bio-One, Kremsmünster, Austria) to generate 11-point dose response curves. Low control wells (0% kynurenine or 100% cytotoxicity) contained either 0.5 μL of DMSO in the presence of unstimulated (-IFN-γ/-LPS) PBMCs for the mass spectrometry assay or 0.5 μL of DMSO in the absence of cells for the cytotoxicity assay, and high control wells (100% kynurenine or 0% cytotoxicity) contained 0.5 μL of DMSO in the presence of stimulated (+IFN-γ/+LPS) PBMCs for both the mass spectrometry and cytotoxicity assays.
Frozen stocks of PBMCs were washed and recovered in RPMI 1640 medium (Thermo Fisher Scientific, Inc., Waltham, Mass.) supplemented with 10% v/v heat-inactivated fetal bovine serum (FBS) (Thermo Fisher Scientific, Inc., Waltham, Mass.), and 1× penicillin-streptomycin antibiotic solution (Thermo Fisher Scientific, Inc., Waltham, Mass.). The cells were diluted to 1,000,000 cells/mL in the supplemented RPMI 1640 medium. 50 μL of either the cell suspension, for the mass spectrometry assay, or medium alone, for the cytotoxicity assay, were added to the low control wells, on the previously prepared 384-well compound plates, resulting in 50,000 cells/well or 0 cells/well respectively. IFN-γ and LPS were added to the remaining cell suspension at final concentrations of 100 ng/ml and 50 ng/ml respectively, and 50 μL of the stimulated cells were added to all remaining wells on the 384-well compound plates. The plates, with lids, were then placed in a 37° C., 5% CO2 humidified incubator for 2 days.
Following incubation, the 384-well plates were removed from the incubator and allowed to equilibrate to room temperature for 30 minutes. For the cytotoxicity assay, CellTiter-Glo® was prepared according to the manufacturer's instructions, and 40 μL were added to each plate well. After a twenty minute incubation at room temperature, luminescence was read on an EnVision® Multilabel Reader (PerkinElmer Inc., Waltham, Mass.). For the mass spectrometry assay, 10 μL of supernatant from each well of the compound-treated plates were added to 40 μL of acetonitrile, containing 10 μM of an internal standard for normalization, in 384-well, polypropylene, V-bottom plates (Greiner Bio-One, Kremsmünster, Austria) to extract the organic analytes. Following centrifugation at 2000 rpm for 10 minutes, 10 μL from each well of the acetonitrile extraction plates were added to 90 μL of sterile, distilled H2O in 384-well, polypropylene, V-bottom plates for analysis of kynurenine and the internal standard on the RapidFire 300 (Agilent Technologies, Santa Clara, Calif.) and 4000 QTRAP MS (SCIEX, Framingham, Mass.). MS data were integrated using Agilent Technologies' RapidFire Integrator software, and data were normalized for analysis as a ratio of kynurenine to the internal standard. […]

Chain of indoleamine 2, 3-dioxygenase (IDO1) (P14902 whole entry): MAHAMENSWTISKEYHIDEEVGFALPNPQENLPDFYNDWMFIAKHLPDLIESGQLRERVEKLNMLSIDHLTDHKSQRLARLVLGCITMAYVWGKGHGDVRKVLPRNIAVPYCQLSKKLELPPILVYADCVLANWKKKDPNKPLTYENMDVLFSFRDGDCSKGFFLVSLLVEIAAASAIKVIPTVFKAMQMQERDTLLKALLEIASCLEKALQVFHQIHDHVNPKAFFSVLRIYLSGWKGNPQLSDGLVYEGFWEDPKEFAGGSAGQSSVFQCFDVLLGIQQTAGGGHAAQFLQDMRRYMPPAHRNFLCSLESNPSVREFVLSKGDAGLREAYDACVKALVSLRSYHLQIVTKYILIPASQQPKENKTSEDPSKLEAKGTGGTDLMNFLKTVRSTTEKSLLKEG

Q: How did the IC50 turn out when `COc1ncccc1OC(=O)N1CCC(C(CC(C)C)NC(=O)c2ccc(F)cc2)CC1` (centres unmarked) [Example 30, 2-methoxypyridin-3-yl 4-{1-[(4-fluorophenyl)formamido]-3-methylbutyl}piperidine-1-carboxylate] was run?
A: 5.01 nM

Q: How did the IC50 turn out when `O=C(N[C@H](c1ccccc1)C1CCN(C(=O)Oc2cccnc2F)CC1)c1ccc(Cl)cc1` [Example 31, 2-fluoropyridin-3-yl 4-[(S)-[(4-chlorophenyl)formamido](phenyl)methyl]piperidine-1-carboxylate] was run?
A: 5.01 nM

Q: Which IC50 does the source give for `CC(C)CC(NC(=O)c1ccc(Cl)cc1)C1CCN(C(=O)Oc2cccnc2C(C)C)CC1` (centres unmarked) [Example 34, 2-(propan-2-yl)pyridin-3-yl 4-{1-[(4-chlorophenyl)formamido]-3-methylbutyl}piperidine-1-carboxylate] here?
A: 6.31 nM

Q: For `CC(C)CC(NC(=O)c1ccc(F)cc1)C1CCN(C(=O)Oc2cncc(F)c2)CC1` (centres unmarked) [Example 45, 5-fluoropyridin-3-yl 4-{1-[(4-fluorophenyl)formamido]-3-methylbutyl}piperidine-1-carboxylate], which IC50 is on record?
A: 10 nM

Q: With `COc1ncccc1OC(=O)N1CCC([C@H](NC(=O)c2ccc(Cl)cc2)c2ccccc2)CC1` [Example 49, 2-methoxypyridin-3-yl 4-[(S)-[(4-chlorophenyl)formamido](phenyl)methyl]piperidine-1-carboxylate] as the compound, how does the IC50 read?
A: 10 nM

Same assay, conditions: human PBMC stimulated with IFN-γ and LPS, 2 days, kynurenine by mass spectrometry; recorded as pIC50; read-out: PBMC PXC50_ (converted)

Q: With `Cc1ccc(C(=O)N[C@H](C2CC2)C2CCN(C(=O)Oc3ccnc(C)c3C)CC2)s1` [Example 32, 2,3-dimethylpyridin-4-yl 4-[(R)-cyclopropyl[(5-methylthiophen-2-yl)formamido]methyl]piperidine-1-carboxylate] as the compound, how does the IC50 read?
A: 5.01 nM

Q: For `Cc1c(OC(=O)N2CCC(C(CC(C)C)NC(=O)c3ccc(F)cc3)CC2)ccnc1F` (centres unmarked) [Example 33, 2-fluoro-3-methylpyridin-4-yl 4-{1-[(4-fluorophenyl)formamido]-3-methylbutyl}piperidine-1-carboxylate], which IC50 is on record?
A: 6.31 nM

Q: How did the IC50 turn out when `Cc1nccc(OC(=O)N2CCC(C(CC(C)C)NC(=O)c3ccc(Cl)cc3)CC2)c1C` (centres unmarked) [Example 35, 2,3-dimethylpyridin-4-yl 4-{1-[(4-chlorophenyl)formamido]-3-methylbutyl}piperidine-1-carboxylate] was run?
A: 6.31 nM

Q: `Cc1c(F)cccc1OC(=O)N1CCC([C@@H](C)NC(=O)c2ccc(Cl)s2)CC1` [Example 36, 3-fluoro-2-methylphenyl 4-[(1R)-1-[(5-chlorothiophen-2-yl)formamido]ethyl]piperidine-1-carboxylate] was tested. Which IC50 did it give?
A: 6.31 nM

Q: With `CC(C)CC(NC(=O)c1ccc(F)cc1)C1CCN(C(=O)Oc2ccccc2)CC1` (centres unmarked) [Example 37, phenyl 4-{1-[(4-fluorophenyl)formamido]-3-methylbutyl}piperidine-1-carboxylate] as the compound, how does the IC50 read?
A: 7.94 nM

Q: With `C[C@@H](NC(=O)c1ccc(Cl)s1)C1CCN(C(=O)Oc2ccccc2)CC1` [Example 38, phenyl 4-[(1R)-1-[(5-chlorothiophen-2-yl)formamido]ethyl]piperidine-1-carboxylate] as the compound, how does the IC50 read?
A: 7.94 nM

Q: With `CC(C)CC(NC(=O)c1ccccc1)C1CCN(C(=O)Oc2ccccc2)CC1` (centres unmarked) [Example 39, phenyl 4-[3-methyl-1-(phenylformamido)butyl]piperidine-1-carboxylate] as the compound, how does the IC50 read?
A: 7.94 nM

Q: For `Cc1cccc(OC(=O)N2CCC(C(CC(C)C)NC(=O)c3ccc(F)cc3)CC2)c1C` (centres unmarked) [Example 40, 2,3-dimethylphenyl 4-{1-[(4-fluorophenyl)formamido]-3-methylbutyl}piperidine-1-carboxylate], which IC50 is on record?
A: 7.94 nM

Q: `CC(C)CC(NC(=O)c1ccc(F)cc1)C1CCN(C(=O)Oc2cccc(C#N)c2F)CC1` (centres unmarked) [Example 41, 3-cyano-2-fluorophenyl 4-{1-[(4-fluorophenyl)formamido]-3-methylbutyl}piperidine-1-carboxylate] was tested. Which IC50 did it give?
A: 7.94 nM

Q: How did the IC50 turn out when `COCCC[C@@H](NC(=O)c1ccc(F)cc1)C1CCN(C(=O)Oc2cccc(F)c2C)CC1` [Example 42, 3-fluoro-2-methylphenyl 4-[(1R)-1-[(4-fluorophenyl)formamido]-4-methoxybutyl]piperidine-1-carboxylate] was run?
A: 7.94 nM

Q: `O=C(NC(c1ccccc1)C1CCN(C(=O)Oc2ccccc2)CC1)c1ccccc1` (centres unmarked) [Example 43, phenyl 4-[phenyl(phenylformamido)methyl]piperidine-1-carboxylate] was tested. Which IC50 did it give?
A: 10 nM

Q: For `Cc1nccc(OC(=O)N2CCC(C(CC(C)C)NC(=O)c3ccc(F)cc3)CC2)c1C` (centres unmarked) [Example 44, 2,3-dimethylpyridin-4-yl 4-{1-[(4-fluorophenyl)formamido]-3-methylbutyl}piperidine-1-carboxylate], which IC50 is on record?
A: 10 nM

Q: `O=C(NC(C1CC1)C1CCN(C(=O)Oc2ccccc2)CC1)c1ccc(Cl)s1` (centres unmarked) [Example 46, phenyl 4-{[(5-chlorothiophen-2-yl)formamido](cyclopropyl)methyl}piperidine-1-carboxylate] was tested. Which IC50 did it give?
A: 10 nM

Q: How did the IC50 turn out when `CC(C)CC(NC(=O)c1ccc(F)cc1)C1CCN(C(=O)Oc2ccncc2F)CC1` (centres unmarked) [Example 47, 3-fluoropyridin-4-yl 4-{1-[(4-fluorophenyl)formamido]-3-methylbutyl}piperidine-1-carboxylate] was run?
A: 10 nM

Q: `CC(C)CC(NC(=O)c1ccc(F)cc1)C1CCN(C(=O)Oc2ccnc(F)c2F)CC1` (centres unmarked) [Example 48, 2,3-difluoropyridin-4-yl 4-{1-[(4-fluorophenyl)formamido]-3-methylbutyl}piperidine-1-carboxylate] was tested. Which IC50 did it give?
A: 10 nM

Q: For `CC(C)CC(NC(=O)c1ccc(F)cc1)C1CCN(C(=O)Oc2ccc(F)cc2)CC1` (centres unmarked) [Example 50, 4-fluorophenyl 4-{1-[(4-fluorophenyl)formamido]-3-methylbutyl}piperidine-1-carboxylate], which IC50 is on record?
A: 12.6 nM

Q: With `Cc1nccc(OC(=O)N2CCC(C(CC(C)C)NC(=O)c3ccc(F)cc3)CC2)c1F` (centres unmarked) [Example 51, 3-fluoro-2-methylpyridin-4-yl 4-{1-[(4-fluorophenyl)formamido]-3-methylbutyl}piperidine-1-carboxylate] as the compound, how does the IC50 read?
A: 12.6 nM

Q: With `CC(NC(=O)c1ccc(Cl)s1)C1CCN(C(=O)Oc2ccccc2)CC1` (centres unmarked) [Example 52, phenyl 4-{1-[(5-chlorothiophen-2-yl)formamido]ethyl}piperidine-1-carboxylate] as the compound, how does the IC50 read?
A: 15.8 nM

Q: For `O=C(NC(c1ccccc1)C1CCN(C(=O)Oc2ccccc2)CC1)c1ccc(Cl)c(F)c1` (centres unmarked) [Example 53, phenyl 4-{[(4-chloro-3-fluorophenyl)formamido](phenyl)methyl}piperidine-1-carboxylate], which IC50 is on record?
A: 20 nM

Q: Which IC50 does the source give for `COc1cccc(OC(=O)N2CCC(C(CC(C)C)NC(=O)c3ccc(F)cc3)CC2)c1` (centres unmarked) [Example 54, 3-methoxyphenyl 4-{1-[(4-fluorophenyl)formamido]-3-methylbutyl}piperidine-1-carboxylate] here?
A: 20 nM

Q: `CC(C)CC(NC(=O)c1ccc(F)cc1)C1CCN(C(=O)Oc2ccnc(F)c2)CC1` (centres unmarked) [Example 55, 2-fluoropyridin-4-yl 4-{1-[(4-fluorophenyl)formamido]-3-methylbutyl}piperidine-1-carboxylate] was tested. Which IC50 did it give?
A: 20 nM

Q: Which IC50 does the source give for `Cc1c(F)cccc1OC(=O)N1CCC([C@@H](C)NC(=O)c2ccccc2)CC1` [Example 56, 3-fluoro-2-methylphenyl 4-[(1R)-1-(phenylformamido)ethyl]piperidine-1-carboxylate] here?
A: 25.1 nM

Q: How did the IC50 turn out when `COc1ccc(C(=O)NC(c2ccccc2)C2CCN(C(=O)Oc3ccccc3)CC2)cc1F` (centres unmarked) [Example 57, phenyl 4-{[(3-fluoro-4-methoxyphenyl)formamido](phenyl)methyl}piperidine-1-carboxylate] was run?
A: 39.8 nM

Q: How did the IC50 turn out when `CC(C)C[C@H](NC(=O)c1ccc(Cl)s1)C1CCN(C(=O)Oc2ccccc2)CC1` [Example 58, phenyl 4-[(1S)-1-[(5-chlorothiophen-2-yl)formamido]-3-methylbutyl]piperidine-1-carboxylate] was run?
A: 39.8 nM
